The record followed here is US20260345584A1, “METHODS AND PHARMACEUTICAL COMPOSITIONS FOR TREATING CHEMOTHERAPY-INDUCED PERIPHERAL NEUROPATHY WITH EG5 INHIBITORS” (UNIVERSITY OF MIAMI, priority 2023, published 2026).

For one experiment, the system named is dfMTs in keratinocytes. Description: dfMT fascicle width. The experiment is classed as in vivo, zebrafish. The conditions noted are these: 96 hr. On the procedure:
The stock solution was divided into 20-30 μl aliquots and stored at −20 °C until use (maximal 6 months). Immediately prior to use, paclitaxel was diluted in Ringer's solution and added to dechorionated larval zebrafish. The larval fish were placed individually or in small groups into wells of a 12-well plate containing the treatment solutions. The control group was 0.05% DMSO. Plates were incubated at 28.5 °C and protected from light. Treatment lengths are indicated in the Drawings, Description of the Drawings, and Examples where appropriate. […] EMD534085, Eg5 inhibitor (MedChemExpress, Cat. No. HY-15000) was diluted in 100% DMSO to make a 10 mM stock solution and stored at −20 °C. […] The solutions were exchanged every 48 hr.
Larval fish were transferred into […] glass vials and fixed in 4% paraformaldehyde (PFA)/1× Phosphate-buffered saline (PBS) for 1.5 hr at room temperature, with gentle rocking. Following a 5-minute incubation in 1×PBS+0.1% Tween-20 (PBST), zebrafish were permeabilized in 1×PBS+0.1% Triton X-100 for 10-30 min. Larval fish were transferred into 2 ml reaction tubes and incubated in blocking buffer (1×PBST+5% BSA) for 30 min at room temperature, with rocking. […]
dfMT thicknesses (defined as the mean width of a given dfMT) was manually measured at high magnification using the Slice mode in Imaris and the Line tool for measuring the distance between two points. […]

The subject of another experiment is skin gene expression. Description: Human skin RNAseq of paclitaxel-treated CIPN patients. It is filed as in vivo. On the procedure:
Neurological history, examination, and QLQ-CIPN20 quality of life questionnaire, which has been validated to detect the presence of CIPN (Postma et al., 2005, Eur J Cancer 41: 1135-1139), was completed in all subjects. Consent was given to obtain two skin punch biopsies of approximately 4 mm diameter. These were collected 10 cm proximal to the lateral malleolus on the distal leg as described previously (Engelstad et al., 2012, Neurology 79: 2187-2193). The biopsies were carried out under anesthesia following local injection of 2% lidocaine with epinephrine, using a sterile technique. In addition, three healthy volunteers of similar age and same gender (female) were recruited as controls. […] Sequence reads were trimmed to remove possible adapter sequences and nucleotides with poor quality using Trimmomatic v.0.36. The trimmed reads were mapped to the Homo sapiens GRCh38 reference genome available on ENSEMBL using the STAR aligner v.2.5.2b. The STAR aligner was a splice aligner that detects splice junctions and incorporates them to help align the entire read sequences. […] Unique gene hit counts were calculated by using featureCounts from the Subread package v.1.5.2. […] Only unique reads that fell within exon regions were counted. If a strand-specific library preparation was performed, the reads were strand-specifically counted. […]

With `CC(=O)O[C@H]1C(=O)[C@@]2(C)[C@H]([C@H](OC(=O)c3ccccc3)[C@]3(O)C[C@H](OC(=O)[C@H](O)[C@@H](NC(=O)c4ccccc4)c4ccccc4)C(C)=C1C3(C)C)[C@]1(OC(C)=O)CO[C@@H]1C[C@@H]2O` [paclitaxel], the “fascicle width of dMTs” value is listed as 6.0±0.49 μm with dfMTs in keratinocytes (100 nM paclitaxel) and 3.4±0.17 μm in the experiment on dfMTs in keratinocytes (22 μM paclitaxel). Moreover, the KIF11 expression entry with skin gene expression (CIPN patients after paclitaxel vs controls) is “upregulated in all three patients”. Besides, the “NOX1 and CYBB expression” value in the experiment on skin gene expression (CIPN patients after paclitaxel vs healthy controls) is given as “most highly upregulated genes”.
